From patent publication US9969749B2, “Inhibitors of IRAK4 activity” (MERCK SHARP & DOHME CORP., priority 2014, dated 2018) come the findings set out here.

IRAK4, sequence (Q9NWZ3 whole entry): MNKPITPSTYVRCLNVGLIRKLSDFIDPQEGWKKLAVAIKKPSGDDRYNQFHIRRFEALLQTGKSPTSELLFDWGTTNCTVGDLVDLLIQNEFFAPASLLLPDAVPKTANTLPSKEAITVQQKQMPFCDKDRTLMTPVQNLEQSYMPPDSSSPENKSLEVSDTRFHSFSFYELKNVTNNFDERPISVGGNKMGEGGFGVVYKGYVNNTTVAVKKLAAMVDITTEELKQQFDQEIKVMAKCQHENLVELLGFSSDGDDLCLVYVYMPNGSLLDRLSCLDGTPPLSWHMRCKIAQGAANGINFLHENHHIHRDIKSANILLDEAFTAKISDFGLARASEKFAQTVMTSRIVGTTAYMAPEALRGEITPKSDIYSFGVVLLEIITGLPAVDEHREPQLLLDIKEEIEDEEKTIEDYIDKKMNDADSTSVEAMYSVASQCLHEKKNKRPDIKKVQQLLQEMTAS

This experiment addresses IRAK4 (Homo sapiens (Human), UniProt Q9NWZ3). The experiment in a line: IRAK4 Kinase Assay (IMAP fluorescence polarization). Type of experiment: biochemical. The note with it: 0.5 nM GST tagged IRAK4, 100 μM ATP, 100 nM fluorescent peptide substrate RP7030, 30 minutes at 25° C. The gist of the method:
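GST-tagged IRAK4 (0.5 nM) phosphorylates 100 nM fluorescent peptide with 100 μM ATP in 10 mM Tris pH 7.2, 1 mM MgCl2, 1 mM DTT, 0.01% Tween 20 for 30 min at 25 °C. Phosphorylation read as IMAP nanoparticle-binding fluorescence polarization after stop reagent.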
On to `CN(C)[C@H]1CC[C@H](Nc2ncnc3ccc(-c4ccncc4C#N)cc23)CC1` [Example 1-20, 4-(4-{[trans-4-(dimethylamino)cyclohexyl]amino}quinazolin-6-yl)pyridine-3-carbonitrile], for which the IC50 stood at 85 nM.

With `CN(C)[C@H]1CC[C@H](Nc2ncnc3ccc(-c4cncc(C(=O)NC(C)(C)C)c4)cc23)CC1` [Example 1-56, N-tert-butyl-5-(4-{[trans-4-(dimethylamino)cyclohexyl]amino}quinazolin-6-yl)pyridine-3-carboxamide], the IC50 amounted to 129 nM. Regarding `CN(C)[C@H]1CC[C@H](Nc2ncnc3ccc(-c4cc(O)cc(F)c4)cc23)CC1` [Example 1-63, 3-(4-{[trans-4-(dimethylamino)cyclohexyl]amino}quinazolin-6-yl)-5-fluorophenol], the midpoint of inhibition, the IC50, lay at 3 nM.

With `Cn1cc(-c2ccc3ncnc(N[C@H]4CC[C@H](N5CCOCC5)CC4)c3c2)cn1` [Example 1-75, 6-(1-methyl-1H-pyrazol-4-yl)-N-(trans-4-morpholin-4-ylcyclohexyl)quinazolin-4-amine], inhibition was half-maximal at 39 nM (IC50).

`CNc1cc(-c2ccc3ncnc(N[C@H]4CC[C@H](N5CCO[C@@H](C)C5)CC4)c3c2)cnc1F` [Example 5-31, 6-[6-fluoro-5-(methylamino)pyridin-3-yl]-N-{trans-4-[(2S)-2-methylmorpholin-4-yl]cyclohexyl}quinazolin-4-amine]: half-maximal inhibition (IC50) required 1 nM. In turn, `Cn1ncnc1-c1ccc2ncnc(N[C@H]3CC[C@H](N4CCOCC4)CC3)c2c1` [Example 2-27, 6-(1-methyl-1H-1,2,4-triazol-5-yl)-N-[trans-4-(morpholin-4-yl)cyclohexyl]quinazolin-4-amine] showed an IC50 of 159 nM. As to `Cc1cc(-c2ccc3ncnc(N[C@H]4CC[C@H](N(C)C)CC4)c3c2)cnn1` [Example 1-1, Trans-N,N-dimethyl-N′-[6-(6-methylpyridazin-4-yl)quinazolin-4-yl]cyclohexane-1,4-diamine], the concentration for half-maximal inhibition (IC50) turned out to be 27 nM.

Turning to `COc1cc(-c2ccc3ncnc(N[C@H]4CC[C@H](N5CCOCC5)CC4)c3c2)cnc1F` [Example 2-29, 6-(6-fluoro-5-methoxypyridin-3-yl)-N-[trans-4-(morpholin-4-yl)cyclohexyl]quinazolin-4-amine], the IC50 came to 20 nM.

`CN(C)[C@H]1CC[C@H](Nc2ncnc3ccc(-c4cnoc4)cc23)CC1` [Example 1-32, trans-N′-[6-(isoxazol-4-yl)quinazolin-4yl]-N,N-dimethylcyclohexane-1,4-diamine] had an IC50 of 9 nM.

With `CN(C)[C@H]1CC[C@H](Nc2ncnc3ccc(-c4cnc5[nH]ccc5c4)cc23)CC1` [Example 1-55, trans-N,N-dimethyl-N′-[6-(1H-pyrrolo[2,3-b]pyridin-5-yl)quinazolin-4-yl]cyclohexane-1,4-diamine], the IC50 is 46 nM. `COc1cncc(-c2ccc3ncnc(N[C@H]4CC[C@H](N5CCOCC5)CC4)c3c2)c1` [Example 1-69, 6-(5-methoxypyridin-3-yl)-N-[trans-4-(morpholin-4-yl)cyclohexyl]quinazolin-4-amine] came in with an IC50 of 18 nM. With `N#Cc1n[nH]cc1-c1ccc2ncnc(N[C@H]3CC[C@H](N4CCOCC4)CC3)c2c1` [Example 2-10, 4-{4-[(trans-4-morpholin-4-ylcyclohexyl)amino]quinazolin-6-yl}-1H-pyrazole-3-carbonitrile], the midpoint of inhibition, the IC50, lay at 8 nM. `Nc1cc(-c2ccc3ncnc(N[C@H]4CC[C@H](N5CCC(F)CC5)CC4)c3c2)cnc1F` [Example 5-16, 6-(5-amino-6-fluoropyridin-3-yl)-N-[trans-4-(4-fluoropiperidin-1-yl)cyclohexyl]quinazolin-4-amine] came in with an IC50 of 1 nM. `CN(C)[C@H]1CC[C@H](Nc2ncnc3ccc(-c4cnc(NC5CC5)nc4)cc23)CC1` [Example 1-42, trans-N′-{6-[2-(cyclopropylamino)pyrimidin-5-yl]quinazolin-4-yl}-N,N-dimethylcyclohexane-1,4-diamine] gave a half-maximal inhibitory concentration (IC50) of 11 nM. Next, `Oc1cncc(-c2ccc3ncnc(N[C@H]4CC[C@H](N5CCOCC5)CC4)c3c2)c1` [Example 1-65, 5-(4-{[trans-4-(morpholin-4-yl)cyclohexyl]amino}quinazolin-6-yl)pyridin-3-ol]: less than 0.5 nM; `Oc1cc(-c2ccc3ncnc(N[C@H]4CC[C@H](N5CCOCC5)CC4)c3c2)cc(F)c1F` [Example 1-70, 2,3-difluoro-5-{4-[(trans-4-morpholin-4-ylcyclohexyl)amino]quinazolin-6-yl}phenol]: 5 nM; `Cc1nc(-c2ccc3ncnc(N[C@H]4CC[C@H](N5CCOCC5)CC4)c3c2)c[nH]1` [Example 2-25, 6-(2-methyl-1H-imidazol-4-yl)-N-[trans-4-(morpholin-4-yl)cyclohexyl]quinazolin-4-amine]: 88 nM. `CNc1cncc(-c2ccc3ncnc(N[C@H]4CC[C@H](N5CCC(F)CC5)CC4)c3c2)c1` [Example 5-9, N-[trans-4-(4-fluoropiperidin-1-yl)cyclohexyl]-6-[5-(methylamino)pyridin-3-yl]quinazolin-4-amine] gave an IC50 of 3 nM. The compound `CN(C)c1cc(-c2ccc3ncnc(N[C@H]4CC[C@H](N5CCOCC5)CC4)c3c2)cnc1F` [Example 2-31, 6-[5-(dimethylamino)-6-fluoropyridin-3-yl]-N-[trans-4-(morpholin-4-yl)cyclohexyl]quinazolin-4-amine] showed an IC50 of 73 nM. `COc1cncc(-c2ccc3ncnc(N[C@H]4CC[C@H](N(C)C)CC4)c3c2)c1` [Example 1-51, trans-N′-[6-(5-methoxypyridin-3-yl)quinazolin-4-yl]-N,N-dimethylcyclohexane-1,4-diamine] showed a half-inhibitory concentration (IC50) of 25 nM. As for `CN(C)[C@H]1CC[C@H](Nc2ncnc3ccc(-c4ccc5[nH]ccc5c4)cc23)CC1` [Example 1-45, trans-N′-[6-(1H-indol-5-yl)quinazolin-4-yl]-N,N-dimethylcyclohexane-1,4-diamine], the IC50 amounted to 81 nM. To `CN(C)[C@H]1CC[C@H](Nc2ncnc3ccc(-c4ccc(C#N)nc4)cc23)CC1` [Example 1-27, 5-(4-{[trans-4-(dimethylamino)cyclohexyl]amino}quinazolin-6-yl)pyridine-2-carbonitrile] belongs 43 nM. In the case of `COc1ccncc1-c1ccc2ncnc(N[C@H]3CC[C@H](N(C)C)CC3)c2c1` [Example 1-35, trans-N′-[6-(4-methoxypyridin-3-yl)quinazolin-4-yl]-N,N-dimethylcyclohexane-1,4-diamine], half-maximal inhibition (IC50) required 394 nM. `Oc1cc(-c2ccc3ncnc(N[C@H]4CC[C@H](N5CCC(F)CC5)CC4)c3c2)cnc1F` [Example 5-13, 2-fluoro-5-(4-{[trans-4-(4-fluoropiperidin-1-yl)cyclohexyl]amino}quinazolin-6-yl)pyridin-3-ol]: the IC50 was less than 0.5 nM. `CN(C)[C@H]1CC[C@H](Nc2ncnc3ccc(-c4cnc(O)nc4)cc23)CC1` [Example 1-33, 5-(4-{[trans-4-(dimethylamino)cyclohexyl]amino}quinazolin-6-yl)pyrimidin-2-ol] had an IC50 of 9 nM.

The compound `N#Cc1sccc1-c1ccc2ncnc(N[C@H]3CC[C@H](N4CCOCC4)CC3)c2c1` [Example 2-17, 3-(4-{[trans-4-(morpholin-4-yl)cyclohexyl]amino}quinazolin-6-yl)thiophene-2-carbonitrile] registered a 50% inhibitory concentration (IC50) of 41 nM. `CN(C)[C@H]1CC[C@H](Nc2ncnc3ccc(-c4cnc5[nH]ncc5c4)cc23)CC1` [Example 1-58, trans-N,N-dimethyl-N′-[6-(1H-pyrazolo[3,4-b]pyridin-5-yl)quinazolin-4-yl]cyclohexane-1,4-diamine]: it took 21 nM to reach half-maximal inhibition (IC50). In the case of `CN(C)[C@H]1CC[C@H](Nc2ncnc3ccc(-c4cncc(O)c4)cc23)CC1` [Example 3-1, 5-(4-(((Trans)-4-(dimethylamino)cyclohexyl)amino)quinazolin-6-yl)pyridin-3-ol], the half-maximal inhibitory concentration (IC50) was 1 nM.

As a reminder, the IC50 is the midpoint of a concentration-inhibition curve.
